From patent US7985745B2, “Method for pain treatment” (Abbott Laboratories, priority 2006, dated 2011) come the findings set out here.

Each structure is given as a SMILES string.

This assay deals with osteoarthritis pain. Kind of assay: MIA-induced knee joint osteoarthritis model, hind limb grip force. It is filed as in vivo, rat. To be noted: grip force 20 days after MIA, % return to normalcy vs naïve group. Here is the method: Unilateral knee joint osteoarthritis was induced in rats by a single intra-articular (i.a.) injection of sodium monoiodoacetate (MIA) (Sigma-Aldrich, St. Louis, Mo.) (3 mg in 50 ul sterile isotonic saline) into the right knee joint cavity under light (1-3%) isoflurane anesthesia.
Pain behavior was assessed by measurement of hind limb grip force (GF) in adult osteoarthritic rats. Following the unilateral injection of MIA (male Sprague Dawley, 325-350 g, tested at 20 days following MIA injection), a behavioral measure of activity-induced pain was carried out. Measurements of the peak hind limb grip force were conducted by recording the maximum compressive force (CFmax), in grams of force, exerted on a hind limb strain gauge setup, in a commercially available grip force measurement system (Columbus Instruments, Columbus, Ohio).
During testing, each rat was gently restrained by grasping it around its rib cage and then allowed to grasp the wire mesh frame attached to the strain gauge. The experimenter then moved the animal in a rostral-to-caudal direction until the grip was broken. Each rat was sequentially tested twice at approximately 2-3 min interval to obtain a raw mean grip force (CFmax). This raw mean grip force data was in turn converted to a maximum hindlimb cumulative compressive force (CFmax), as the grams of force/kg of body weight, for each animal.
For evaluating the compound effects, the hind limb grip force was conducted 20 days following the intra-articular injection of MIA. A group of age-matched naïve (not injected with MIA) animals was added as a comparator to the drug-dosed groups. The vehicle control response for each group of MIA-treated animals was defined as the 0% response (0% effect), whereas the naïve control group was defined as the normal response and as 100% effect. The % effects for each dose group was expressed as % return of response to normalcy, compared to the naïve group. That is, the % effect=(Treatment CFmax−Vehicle CFmax)/[…]]×100). All experiments evaluating drug effects in this model were conducted in a randomized blinded fashion.

Take `CN1CCN(C(=O)c2cc3cc(Cl)ccc3[nH]2)CC1` [Example 3, reference compound]: the “% Effect” value runs as follows: (100 micromole/kg i.p.) 21%; (250 micromole/kg i.p.) 47%.
